This note sets out measurements from US8680058B2, “Selectively targeted antimicrobial peptides and the use thereof” (priority 2006, dated 2014).

Where two headings read alike, the source gives them in different places. No end group written: not given here.

For one assay, the system named is other oral streptococci. Put plainly: Binding of fluorescently labeled peptides to other oral streptococci. The settings on record: fluorescently labeled peptide. The text has this:
1.2 Fluorescent labeling of peptides and fluorescence microscopy. Aliquots of CSPC16 (SEQ ID NO 2), CSP-fragment peptides (Table 2), and C16G2 (SEQ ID NO 4) were labeled with carboxyfluorescein (Sigma) as described previously (Eckert et al., 2006). After peptide cleavage but prior to the bacterial labeling assay, fluorescence intensity per μM peptide was checked fluorimetrically (λex=488 nm, λem=520 nm VersaFluor, BioRad) and found to be relatively similar (data not shown). To evaluate the level of peptide binding to bacteria, streptococci from an overnight culture (OD600 of 0.7-1.0) were washed with phosphate buffered saline (1×PBS), diluted 1:2 into 1×PBS, and exposed to peptide (16 μM) for 5 min at 25° C. After incubation with peptide, unbound agent was removed from the bacteria by three cycles of centrifugation (5 min, 16,000×g) and resuspension in 1×PBS. Labeling of oral streptococci was evaluated using brightfield and fluorescence microscopy (Nikon E400) at a 40× magnification. The digital images utilized for the semi-quantitative binding assessment were acquired with the factory-supplied software (SPOT, Diagnostics).

For the next assay, the system named is S. mutans. Format: cell-based, Streptococcus mutans. On the procedure:
(§1) 1.3 Determination of antimicrobial activity. The general antimicrobial activity of peptides against planktonic bacteria was determined by a MIC assay in TH broth (all oral streptococci) (Qi et al., 2005).
(§2) S. mutans, S. gordonii Challis (DL1), and S. sanguinis NY101 strains were grown in Todd Hewitt (TH, Fisher) broth medium at 37° C. under anaerobic conditions (80% N2, 10% CO2, and 10% H2). S. mutans strains UA159 (Ajdic et al., 2002), ATCC 25175, and T8 (Rogers, 1975), are wild-type clinical isolates, while comD is a knockout mutant that was constructed previously from the wild-type UA140 background (Qi et al., 2005). Luciferase expressing S. mutans strain JM11 was constructed from UA140 as described (Merritt et al., 2005). Exponentially growing bacterial cells were diluted to ˜1×10^5 cfu/mL in TH and placed into 96-well plates (Fisher). Peptides were then serially diluted and added to the bacteria.

Another assay relates to S. sanguinis. It counts as cell-based, S. sanguinis NY101. As for the experimental part:
as §1, §2

For another assay, the system named is S. mutans UA159. The experiment in a line: Time-kill (bactericidal kinetics), planktonic S. mutans. It counts as cell-based, Streptococcus mutans. Particulars: 25 μM, 1 min exposure. On the procedure: 1.4 Determination of bactericidal kinetics. To determine the short term killing rate and selectivity of C16G2 and G2 we performed time-kill experiments, essentially as described previously (Eckert et al., 2006). S. mutans UA159, S. gordonii, or S. sanguinis were grown to log phase and diluted to ˜1×10^5 cfu/mL in growth medium. Under aerobic conditions, 25 μM G2 or C16G2 was added to the cell suspension and incubated at 25° C. At 1 min, 10 μL of cell suspension was removed, rescued by dilution into growth medium (1:50) and kept on ice. For plating, 20-500 μL of rescued cells were spread on growth medium agar plates and colonies were counted after overnight incubation at 37° C. under anaerobic conditions. We considered 60 cfu/mL as the detection limit for this assay. Values of surviving cfu/mL were expressed as the ratio of survivors from C16G2-treated cultures to cfu/mL from samples exposed to G2.

In a further assay the test system is S. mutans biofilms. The experiment in a line: Single-species biofilm regrowth after peptide exposure, S. mutans. It counts as cell-based, Streptococcus mutans. The settings on record: 25 μM peptide, 1 min exposure. On the procedure: (§3) 1.5 Examination of antimicrobial activity against single-species biofilms. To initiate biofilm formation, ˜1×10^7 bacteria per well (from overnight cultures) were seeded in TH medium (100 μL) to a 96-well flat-bottom plate. For all streptococci except S. mutans, the medium was supplemented with 0.5% (w/v) mannose and glucose. S. mutans UA159 biofilms were grown with 0.5% (w/v) sucrose. Plates were then centrifuged briefly to pellet the cells, and bacteria were incubated for 3-4 hours at 37° C. for biofilm formation. After incubation, the supernatant was carefully removed and biofilms were treated with 25 μM peptide in 1×PBS or 1×PBS alone for 1 min. The peptide solution was then removed and 100 μL TH was added to further dilute any remaining peptide. To minimize biofilm loss, cells were briefly centrifuged after TH addition, after which the supernatants were removed and fresh medium plus appropriate sugars were returned. Cells were then incubated anaerobically at 37° C. and biofilm growth was monitored over time by measuring absorbance at OD600 with a microplate spectrophotometer (Benchmark Plus, BioRad).

The test system of the next assay is S. gordonii biofilms. The experiment in a line: Single-species biofilm regrowth after peptide exposure, S. gordonii. It counts as cell-based. Particulars: 25 μM peptide, 1 min exposure. On the procedure: as §3
A further assay deals with S. sanguinis biofilms. Put plainly: Single-species biofilm regrowth after peptide exposure, S. sanguinis. Format: cell-based. Particulars: 25 μM peptide, 1 min exposure. On the procedure:
as §3

For the substance “TFFRLFNRSFTQALGKGGGKNLRIIRKGIHIIKKY-NH2 [Peptide C16G2]”, the “binding to other oral streptococci” value in the assay with other oral streptococci is recorded as “not to other oral streptococci”. The “increase in antimicrobial activity over the parental antimicrobial peptide G2” value with S. mutans (MIC, S. mutans strains) was 4-5 fold. The MIC in the assay with S. mutans (S. mutans 25175) stood at 3.8 ± 0.3 µM; against S. mutans (S. mutans T8), 3.7 ± 0.2 µM; in the assay with S. mutans (S. mutans UA159), 3.0 ± 1.6 µM; against S. mutans (S. mutans comD) it was 5.1 ± 2.4 µM; in the assay on S. sanguinis, 19.1 ± 4.0 µM. Further, the “difference in susceptibility between G2 and C16G2” value with S. sanguinis (MIC, S. sanguinis) is no more than 2 fold. Further, the “activity in comparison to G2 (surviving cfu/mL)” value with S. mutans UA159 is “over 20 fold”. For the same substance, the “biofilm re-growth after treatment (OD600)” value with S. mutans biofilms was “severely inhibited”; in the assay on S. gordonii biofilms, “grew similarly to untreated biofilms”; in the assay with S. sanguinis biofilms, “grew similarly to untreated biofilms”.
